Patent US11608338B2, “Imidazolonylquinolines and the use thereof as ATM kinase inhibitors” (priority 2015, dated 2023)

Experiments:
Assay type in all cases: biochemical
PI3K p110α/p85α (human) = PI3K p110α/p85α (human) (Homo sapiens (Human), UniProt P42336); experiment: PI3K p110α/p85α (human), non-radioactive assay (HTRF); settings: ATM versus PI3Kalpha
Procedure: PI3K p110α/p85α (Human), Non-Radioactive Assay
(§1) PI3K p110α/p85α (human) was incubated in an assay buffer comprising 10 μM phosphatidylinositol 4,5-bisphosphate and MgATP (concentration as necessary). The reaction was initiated by addition of MgATP solution. After incubation at room temperature for 40 minutes, the reaction was stopped by addition of a solution consisting of EDTA and biotinylated phosphatidylinositol 3,4,5-trisphosphate. Finally, the detection buffer, consisting of a europium-labelled anti-GST monoclonal antibody, a GST-labelled GRP1 PH domain and streptavidin allophycocyanin, was added. The plate was read out via homogeneous time-resolved fluorescence (HTRF) and the corresponding signals were evaluated via the formula HTRF=10000×(Em665 nm/Em620 nm).

PI3K p110δ/p85α (human) = PI3K p110δ/p85α (human) (Homo sapiens (Human), UniProt O00329); experiment: PI3K p110δ/p85α (human), non-radioactive assay (HTRF); settings: ATM versus PI3Kdelta
Procedure: PI3K p110δ/p85α (Human), Non-Radioactive Assay
as §1, with “p110δ/p85α” for “p110α/p85α”, “After an” for “After”, “incubation time of 30 min” for “incubation”, “temperature,” for “temperature for 40 minutes,”

PI3K (p120γ) (human) = PI3K (p120γ) (human) (Homo sapiens (Human), UniProt P48736); experiment: PI3K (p120γ) (human), non-radioactive assay (HTRF); settings: ATM versus PI3Kgamma
Procedure: PI3K (p120γ) (Human), Non-Radioactive Assay
as §1, with “(p120γ)” for “p110α/p85α”, “After an” for “After”, “incubation time of 30 min” for “incubation”, “temperature,” for “temperature for 40 minutes,”, “nm). • MgATP=magnesium 5′-O-[hydroxy({[(hydroxyphosphinato)oxy]phosphinato}oxy)phosphoryl]adenosine • MgCl2=magnesium dichloride • EGTA=ethylene glycol bis(aminoethyl ether) N,N,N′,N′-tetraacetic acid • Tween 20=polysorbate 20 Medicament/Pharmaceutical Composition” for “nm).”

mTOR (human) = mTOR (human) (Homo sapiens (Human), UniProt P42345); experiment: mTOR (human) radiometric kinase assay; settings: ATM versus mTOR
Procedure: Furthermore, the effect, in particular inhibition, of other kinases and thus the selectivity of the compounds according to the invention can be determined with the aid of the following assay:
mTOR (human) was incubated with 50 mM HEPES pH 7.5, 1 mM EGTA, 0.01% Tween 20, 2 mg/ml of the substrate, 3 mM MnCl2 and [γ-^33P-ATP] (specific activity approximately 500 cpm/pmol, concentration as necessary). The reaction was initiated by addition of MgATP solution. After incubation at room temperature for 40 minutes, the reaction was stopped by addition of 3% phosphoric acid. 10 μl of the reaction solution were then transferred dropwise onto a P30 filtermat and washed three times for 5 min in 75 mM phosphoric acid and once in methanol, dried and evaluated by means of liquid scintillation counting.

PI3K p110β/p85α (human) = PI3K p110β/p85α (human) (Homo sapiens (Human), UniProt P42338); experiment: PI3K p110β/p85α (human), non-radioactive assay (HTRF); settings: ATM versus PI3Kbeta
Procedure: PI3K p110β/p85α (Human), Non-Radioactive Assay
as §1, with “p110β/p85α” for “p110α/p85α”, “After an” for “After”, “incubation time of 30 min” for “incubation”, “temperature,” for “temperature for 40 minutes,”

Sequence of PI3K p110α/p85α (human) (P42336 whole entry): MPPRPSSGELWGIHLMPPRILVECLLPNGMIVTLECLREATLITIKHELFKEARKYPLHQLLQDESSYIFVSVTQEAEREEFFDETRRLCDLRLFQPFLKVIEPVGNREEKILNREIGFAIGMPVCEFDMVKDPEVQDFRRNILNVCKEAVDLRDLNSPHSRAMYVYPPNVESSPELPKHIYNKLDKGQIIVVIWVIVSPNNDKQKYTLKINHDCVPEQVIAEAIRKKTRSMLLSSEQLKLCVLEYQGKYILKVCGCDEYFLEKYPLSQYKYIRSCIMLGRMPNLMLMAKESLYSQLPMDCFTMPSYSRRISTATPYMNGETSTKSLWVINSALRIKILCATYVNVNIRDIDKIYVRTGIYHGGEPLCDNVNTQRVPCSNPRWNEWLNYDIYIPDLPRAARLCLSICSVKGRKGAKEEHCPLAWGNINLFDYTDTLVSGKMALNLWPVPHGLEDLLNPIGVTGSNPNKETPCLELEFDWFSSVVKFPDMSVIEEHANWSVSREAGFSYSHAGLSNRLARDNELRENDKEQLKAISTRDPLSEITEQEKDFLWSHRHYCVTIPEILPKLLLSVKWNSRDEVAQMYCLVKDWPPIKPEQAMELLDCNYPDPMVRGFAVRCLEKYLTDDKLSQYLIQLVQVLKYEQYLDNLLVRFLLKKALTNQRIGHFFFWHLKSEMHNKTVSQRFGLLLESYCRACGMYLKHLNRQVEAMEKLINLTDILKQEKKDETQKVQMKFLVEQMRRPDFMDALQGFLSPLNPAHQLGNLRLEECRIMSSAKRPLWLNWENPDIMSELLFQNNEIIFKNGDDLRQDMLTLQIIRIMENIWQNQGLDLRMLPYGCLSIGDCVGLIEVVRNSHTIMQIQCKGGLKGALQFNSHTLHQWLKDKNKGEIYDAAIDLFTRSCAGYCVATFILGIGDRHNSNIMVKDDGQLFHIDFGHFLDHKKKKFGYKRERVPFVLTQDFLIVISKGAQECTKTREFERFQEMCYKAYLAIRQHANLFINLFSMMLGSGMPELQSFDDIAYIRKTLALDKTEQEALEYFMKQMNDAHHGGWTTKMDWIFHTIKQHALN
Sequence of PI3K p110α/p85α (human) (P27986 whole entry partner): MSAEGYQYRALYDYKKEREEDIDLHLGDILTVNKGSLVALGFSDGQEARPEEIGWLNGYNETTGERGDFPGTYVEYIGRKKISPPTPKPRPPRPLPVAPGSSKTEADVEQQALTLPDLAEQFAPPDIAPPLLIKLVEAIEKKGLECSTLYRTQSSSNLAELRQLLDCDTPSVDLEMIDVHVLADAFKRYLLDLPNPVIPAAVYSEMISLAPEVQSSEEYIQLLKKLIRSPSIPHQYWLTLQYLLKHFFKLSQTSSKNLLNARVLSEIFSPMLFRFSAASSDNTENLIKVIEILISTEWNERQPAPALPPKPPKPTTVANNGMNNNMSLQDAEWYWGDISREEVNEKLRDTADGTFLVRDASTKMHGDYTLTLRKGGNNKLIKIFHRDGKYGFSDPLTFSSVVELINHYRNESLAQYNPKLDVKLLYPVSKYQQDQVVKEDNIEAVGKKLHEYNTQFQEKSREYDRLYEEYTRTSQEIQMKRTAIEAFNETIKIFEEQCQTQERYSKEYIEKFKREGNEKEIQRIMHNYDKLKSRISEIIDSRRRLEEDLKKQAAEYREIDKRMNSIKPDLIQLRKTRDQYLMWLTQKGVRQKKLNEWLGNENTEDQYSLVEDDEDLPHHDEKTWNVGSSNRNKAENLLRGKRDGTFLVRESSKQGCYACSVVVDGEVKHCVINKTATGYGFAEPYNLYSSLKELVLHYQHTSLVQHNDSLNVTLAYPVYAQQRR
Sequence of PI3K p110δ/p85α (human) (O00329 whole entry): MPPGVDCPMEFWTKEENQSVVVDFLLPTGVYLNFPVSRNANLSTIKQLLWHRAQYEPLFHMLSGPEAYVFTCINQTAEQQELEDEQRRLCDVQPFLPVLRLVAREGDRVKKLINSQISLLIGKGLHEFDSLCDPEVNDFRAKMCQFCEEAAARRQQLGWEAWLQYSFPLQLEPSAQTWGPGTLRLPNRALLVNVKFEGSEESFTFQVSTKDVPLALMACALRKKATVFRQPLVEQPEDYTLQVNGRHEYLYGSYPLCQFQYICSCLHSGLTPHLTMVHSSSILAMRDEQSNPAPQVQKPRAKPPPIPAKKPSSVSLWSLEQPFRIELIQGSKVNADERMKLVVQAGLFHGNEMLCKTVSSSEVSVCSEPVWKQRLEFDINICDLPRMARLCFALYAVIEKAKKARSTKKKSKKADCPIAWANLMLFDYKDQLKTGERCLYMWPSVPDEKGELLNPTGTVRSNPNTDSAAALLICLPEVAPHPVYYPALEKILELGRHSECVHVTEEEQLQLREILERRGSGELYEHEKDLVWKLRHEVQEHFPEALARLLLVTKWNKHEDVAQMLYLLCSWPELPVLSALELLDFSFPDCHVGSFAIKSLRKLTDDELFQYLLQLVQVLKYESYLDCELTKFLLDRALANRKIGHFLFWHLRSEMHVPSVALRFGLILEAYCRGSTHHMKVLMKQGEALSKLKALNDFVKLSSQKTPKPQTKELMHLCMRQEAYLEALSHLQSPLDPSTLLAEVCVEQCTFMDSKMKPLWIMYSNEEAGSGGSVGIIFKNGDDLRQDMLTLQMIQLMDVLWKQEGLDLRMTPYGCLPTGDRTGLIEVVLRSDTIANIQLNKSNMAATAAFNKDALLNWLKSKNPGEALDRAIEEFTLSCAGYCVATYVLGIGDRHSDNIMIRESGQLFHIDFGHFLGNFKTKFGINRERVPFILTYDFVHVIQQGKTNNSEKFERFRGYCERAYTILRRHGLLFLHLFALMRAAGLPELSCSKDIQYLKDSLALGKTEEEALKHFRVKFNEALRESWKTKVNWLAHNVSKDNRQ
Sequence of PI3K p110δ/p85α (human) (P27986 whole entry partner): as the sequence (P27986 whole entry partner) above
Sequence of PI3K (p120γ) (human) (P48736 whole entry): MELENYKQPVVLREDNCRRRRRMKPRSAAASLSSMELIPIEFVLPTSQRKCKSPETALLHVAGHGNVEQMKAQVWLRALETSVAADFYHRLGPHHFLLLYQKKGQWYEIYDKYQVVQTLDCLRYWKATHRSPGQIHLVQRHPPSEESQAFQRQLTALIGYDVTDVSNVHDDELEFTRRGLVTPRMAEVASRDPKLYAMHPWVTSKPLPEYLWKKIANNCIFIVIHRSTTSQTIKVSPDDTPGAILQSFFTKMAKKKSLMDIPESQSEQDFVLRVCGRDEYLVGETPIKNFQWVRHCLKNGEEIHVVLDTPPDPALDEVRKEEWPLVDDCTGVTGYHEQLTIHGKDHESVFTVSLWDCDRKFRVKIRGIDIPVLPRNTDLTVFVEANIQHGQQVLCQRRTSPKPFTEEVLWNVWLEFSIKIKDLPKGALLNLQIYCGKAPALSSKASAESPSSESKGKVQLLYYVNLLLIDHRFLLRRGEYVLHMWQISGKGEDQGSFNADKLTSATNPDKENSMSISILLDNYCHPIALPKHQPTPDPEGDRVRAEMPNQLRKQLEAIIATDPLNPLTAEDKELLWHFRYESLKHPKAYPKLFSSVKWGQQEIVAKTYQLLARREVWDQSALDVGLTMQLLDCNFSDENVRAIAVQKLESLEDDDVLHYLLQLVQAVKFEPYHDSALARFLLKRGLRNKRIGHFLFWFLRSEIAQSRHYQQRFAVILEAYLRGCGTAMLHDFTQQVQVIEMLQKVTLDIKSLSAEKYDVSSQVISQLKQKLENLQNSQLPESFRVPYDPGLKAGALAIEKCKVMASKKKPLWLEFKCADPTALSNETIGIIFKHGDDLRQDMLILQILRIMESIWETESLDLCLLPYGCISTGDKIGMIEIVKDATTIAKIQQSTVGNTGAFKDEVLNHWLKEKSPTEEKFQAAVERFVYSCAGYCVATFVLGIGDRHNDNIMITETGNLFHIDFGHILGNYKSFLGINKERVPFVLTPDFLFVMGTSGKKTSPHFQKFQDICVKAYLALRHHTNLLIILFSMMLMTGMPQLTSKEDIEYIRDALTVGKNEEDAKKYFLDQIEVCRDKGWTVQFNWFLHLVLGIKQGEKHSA
Sequence of PI3K p110β/p85α (human) (P42338 whole entry): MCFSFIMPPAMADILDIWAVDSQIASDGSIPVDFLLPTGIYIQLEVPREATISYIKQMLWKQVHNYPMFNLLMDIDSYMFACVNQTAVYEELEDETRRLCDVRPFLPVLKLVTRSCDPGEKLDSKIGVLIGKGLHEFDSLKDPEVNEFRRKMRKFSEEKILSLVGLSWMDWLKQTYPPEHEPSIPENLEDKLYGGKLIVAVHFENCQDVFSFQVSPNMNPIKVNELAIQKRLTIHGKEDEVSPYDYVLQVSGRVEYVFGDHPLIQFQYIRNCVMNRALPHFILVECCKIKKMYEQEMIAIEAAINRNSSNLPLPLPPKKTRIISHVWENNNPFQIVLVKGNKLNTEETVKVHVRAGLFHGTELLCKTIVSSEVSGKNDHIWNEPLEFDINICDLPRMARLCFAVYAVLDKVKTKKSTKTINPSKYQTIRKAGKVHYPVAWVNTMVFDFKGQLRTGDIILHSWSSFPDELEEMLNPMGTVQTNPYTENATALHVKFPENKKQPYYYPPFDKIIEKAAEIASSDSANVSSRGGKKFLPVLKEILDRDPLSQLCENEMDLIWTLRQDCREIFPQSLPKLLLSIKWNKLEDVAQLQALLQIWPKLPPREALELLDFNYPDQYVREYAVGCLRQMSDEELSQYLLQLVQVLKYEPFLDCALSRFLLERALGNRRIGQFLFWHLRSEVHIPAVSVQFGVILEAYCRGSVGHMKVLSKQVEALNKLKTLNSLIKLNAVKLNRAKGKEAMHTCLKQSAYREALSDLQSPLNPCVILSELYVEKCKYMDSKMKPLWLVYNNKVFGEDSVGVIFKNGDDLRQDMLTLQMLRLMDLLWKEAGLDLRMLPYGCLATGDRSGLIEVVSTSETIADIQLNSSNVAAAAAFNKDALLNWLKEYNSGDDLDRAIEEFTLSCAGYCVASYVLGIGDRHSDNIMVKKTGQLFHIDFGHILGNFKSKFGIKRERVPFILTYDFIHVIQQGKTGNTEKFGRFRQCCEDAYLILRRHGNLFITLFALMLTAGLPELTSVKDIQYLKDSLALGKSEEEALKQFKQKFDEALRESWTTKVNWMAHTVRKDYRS
Sequence of PI3K p110β/p85α (human) (P27986 whole entry partner): as the sequence (P27986 whole entry partner) above

SMILES | ratio of IC50 (ATM) and IC50 (PI3Kalpha), selectivity with respect to PI3Kalpha (PI3K p110α/p85α (human)) | ratio of IC50 (ATM) and IC50 (PI3Kdelta), selectivity with respect to PI3Kdelta (PI3K p110δ/p85α (human)) | ratio of IC50 (ATM) and IC50 (PI3Kgamma), selectivity with respect to PI3Kgamma (PI3K (p120γ) (human)) | ratio IC50 (ATM):IC50 (mTOR), selectivity with respect to mTOR (mTOR (human)) | ratio IC50 (ATM):IC50 (PI3Kbeta), selectivity with respect to PI3Kbeta (PI3K p110β/p85α (human))
COCCOc1cnc(-n2c(=O)n(C)c3cnc4cc(OC)c(-c5cnn(C)c5)cc4c32)c(F)c1 [Example 66, 1-[3-Fluoro-5-(2-methoxy-ethoxy)-2-pyridyl]-7-methoxy-3-methyl-8-(1-methylpyrazol-4-yl)imidazo-[4,5-c]quinolin-2-one] | at least 2000 times | at least 2000 times | at least 2000 times | – | –
COc1cc2ncc3c(c2cc1-c1cnn(C)c1)n(-c1ncc(OCCO)cc1F)c(=O)n3C [Example 67, 1-[3-Fluoro-5-(2-hydroxy-ethoxy)-2-pyridyl]-7-methoxy-3-methyl-8-(1-methylpyrazol-4-yl)imidazo-[4,5-c]quinolin-2-one] | at least 2000 times | at least 2000 times | at least 2000 times | – | –
COc1cc2ncc3c(c2cc1-c1cnn(C)c1)n(-c1ncc(OC(F)F)cc1F)c(=O)n3C [Example 114, 1-(5-Difluoromethoxy-3-fluoropyridin-2-yl)-7-methoxy-3-methyl-8-(1-methyl-1H-pyrazol-4-yl)-1,3-dihydroimidazo[4,5-c]-quinolin-2-one] | at least 2000 times | at least 2000 times | at least 2000 times | at least 2000 times | –
COc1cc2ncc3c(c2cc1-c1c[nH]nc1C)n(-c1ncc(F)cc1F)c(=O)n3C [Example 117, 1-(3,5-Difluoropyridin-2-yl)-7-methoxy-3-methyl-8-(3-methyl-1H-pyrazol-4-yl)-1,3-dihydroimidazo[4,5-c]-quinolin-2-one] | at least 2000 times | at least 2000 times | at least 2000 times | – | –
COc1cc2ncc3c(c2cc1-c1cnn(C)c1)n(-c1cc2[nH]ccc2cn1)c(=O)n3C [Example 120, 7-Methoxy-3-methyl-8-(1-methyl-1H-pyrazol-4-yl)-1-(1H-pyrrolo[3,2-c]pyridin-6-yl)-1,3-dihydroimidazo-[4,5-c]quinolin-2-one] | at least 2000 times | at least 2000 times | at least 2000 times | at least 2000 times | –
COc1cc2ncc3c(c2cc1-c1cc[nH]n1)n(-c1cn(C)nc1C)c(=O)n3C [Example 121, 1-(1,3-Dimethyl-1H-pyrazol-4-yl)-7-methoxy-3-methyl-8-(1H-pyrazol-3-yl)-1,3-dihydroimidazo[4,5-c]-quinolin-2-one] | – | – | – | at least 2000 times | –
COc1cnc(-n2c(=O)n(C)c3cnc4cc(OC)c(-c5c[nH]nc5C)cc4c32)c(F)c1 [Example 122, 1-(3-Fluoro-5-methoxy-pyridin-2-yl)-7-methoxy-3-methyl-8-(3-methyl-1H-pyrazol-4-yl)-1,3-dihydro-imidazo[4,5-c]quinolin-2-one] | at least 2000 times | at least 2000 times | at least 2000 times | at least 2000 times | –
COc1cc2ncc3c(c2cc1-c1cnn(C)c1)n(-c1ncc(N2CCNCC2)cc1F)c(=O)n3C [Example 123, 1-(3-Fluoro-5-piperazin-1-yl-pyridin-2-yl)-7-methoxy-3-methyl-8-(1-methyl-1H-pyrazol-4-yl)-1,3-dihydro-imidazo[4,5-c]quinolin-2-one] | at least 2000 times | at least 2000 times | at least 2000 times | – | –
CCc1cncc(F)c1-n1c(=O)n(C)c2cnc3cc(OC)c(-c4cn(C)nn4)cc3c21 [Example 126, 1-(3-Ethyl-5-fluoropyridin-4-yl)-7-methoxy-3-methyl-8-(1-methyl-1H-1,2,3-triazol-4-yl)-1,3-dihydroimidazo-[4,5-c] quinolin-2-one] | at least 2000 times | at least 2000 times | at least 2000 times | at least 2000 times | –
COc1ccc(-c2cc3c(cc2OC)ncc2c3n(-c3c(F)cncc3OC)c(=O)n2C)cn1 [Example 137, 1-(3-Fluoro-5-methoxy-pyridin-4-yl)-7-methoxy-8-(6-methoxypyridin-3-yl)-3-methyl-1,3-dihydroimidazo-[4,5-c]quinolin-2-one] | – | – | – | – | at least 2000 times
CNC(=O)c1cnc(-n2c(=O)n(C)c3cnc4cc(OC)c(-c5cnn(C)c5)cc4c32)c(F)c1 [Example 138, 5-Fluoro-6-[7-methoxy-3-methyl-8-(1-methyl-1H-pyrazol-4-yl)-2-oxo-2,3-dihydroimidazo[4,5-c]-quinolin-1-yl]-N-methyl-nicotinamid] | – | – | – | at least 2000 times | –
COc1cc2ncc3c(c2cc1-c1cnn(C)c1)n(-c1cn(C)nc1F)c(=O)n3C [Example 141, 1-(3-Fluoro-1-methyl-1H-pyrazo1-4-yl)-7-methoxy-3-methyl-8-(1-methyl-1H-pyrazol-4-yl)-1,3-dihydro-imidazo[4,5-c]quinolin-2-one] | – | – | – | at least 2000 times | –
COc1cc2ncc3c(c2cc1-c1cn(C)nc1C)n(-c1c(F)cncc1OC(F)F)c(=O)n3C [Example 147, 1-(3-Difluoromethoxy-5-fluoropyridin-4-yl)-8-(1,3-dimethyl-1H-pyrazol-4-yl)-7-methoxy-3-methyl-1,3-dihydroimidazo[4,5-c]-quinolin-2-one] | – | – | – | at least 2000 times | –
CCc1cnccc1-n1c(=O)n(C)c2cnc3cc(OC)c(-c4cnn(CC)c4)cc3c21 [Example 157, 8-(1-Ethyl-1H-pyrazol-4-yl)-1-(3-ethylpyridin-4-yl)-7-methoxy-3-methyl-1,3-dihydroimidazo[4,5-c] quinolin-2-one] | – | – | – | at least 2000 times | –
COc1cc2ncc3c(c2cc1-c1cnn(C)c1)n(-c1ncc(OC2CNC2)cc1F)c(=O)n3C [Example 205, 1-[5-(Azetidin-3-yloxy)-3-fluoropyridin-2-yl]-7-methoxy-3-methyl-8-(1-methyl-1H-pyrazol-4-yl)-1,3-dihydroimidazo[4,5-c]-quinolin-2-one] | at least 2000 times | at least 2000 times | at least 2000 times | – | –
